Data taken from PMC3257251, “A Whole Cell Assay to Measure Caspase-6 Activity by Detecting Cleavage of Lamin A/C” (PLoS ONE, 2012).
Like-named read-outs stand apart in the source and are kept apart here. Peptide text beside a SMILES is read from it. * marks the point of attachment. Cbz = O=C(OCc1ccccc1)*; CH2F = FC*

Tests used:
Caspase-6 = biological target: T1, Caspase-6 (Homo sapiens, UniProt P55212); assay: Enzymatic caspase activity assay, (Ac-VEID)2-Rh110 substrate; conditions: 15 minute enzyme/inhibitor preincubation and 40 minute enzyme reaction
T1 sequence (P55212 24-179 limits assumed): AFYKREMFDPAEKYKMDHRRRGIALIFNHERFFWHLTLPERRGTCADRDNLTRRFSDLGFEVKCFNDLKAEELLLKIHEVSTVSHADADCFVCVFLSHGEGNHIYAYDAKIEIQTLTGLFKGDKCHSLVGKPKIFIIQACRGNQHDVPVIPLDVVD
T1 sequence (P55212 194-293 limits assumed): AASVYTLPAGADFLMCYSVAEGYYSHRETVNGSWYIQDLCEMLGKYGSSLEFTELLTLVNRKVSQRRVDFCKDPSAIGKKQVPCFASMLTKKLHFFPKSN
Procedure: (§1) All peptide inhibitors were serially diluted in DMSO prior to cross dilution in assay buffer (50 mM HEPES pH 7.2, 25 mM MgSO4, 0.5 mM EGTA, 5 mM Glutathione, 0.01% Triton X-100 containing 0.1% Bovine Gamma Globulin (BGG)). […] Rhodamine-labeled bivalent tetrapeptide substrates were obtained from Anaspec (Fremont, CA) and used as follows: 300 pM caspase-3 reacted with 1 µM (Ac-DEVD)2 -Rh110, 1 nM caspase-6 reacted with 5 µM (Ac-VEID)2 -Rh110, 5 pM caspase-7 reacted with 1 µM (Ac-DEVD)2 -Rh110. Enzyme and inhibitor were preincubated for 15 minutes prior to the addition of substrate to initiate the enzymatic reaction.

Caspase-7 = biological target: T2, Caspase-7 (Homo sapiens, UniProt P55210); assay: Enzymatic caspase activity assay, (Ac-DEVD)2-Rh110 substrate; conditions: read-out: Mean IC50 Caspase-7; apparent IC50; 15 minute preincubation and 40 minute reaction; 5 pM caspase-7, 1 µM (Ac-DEVD)2-Rh110
T2 sequence (P55210 24-198 limits assumed): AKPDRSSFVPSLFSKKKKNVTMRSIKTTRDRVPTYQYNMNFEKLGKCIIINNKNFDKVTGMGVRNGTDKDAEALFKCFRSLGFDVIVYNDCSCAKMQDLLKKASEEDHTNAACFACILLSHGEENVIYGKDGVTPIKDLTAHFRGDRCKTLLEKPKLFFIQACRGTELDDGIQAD
T2 sequence (P55210 207-303 limits assumed): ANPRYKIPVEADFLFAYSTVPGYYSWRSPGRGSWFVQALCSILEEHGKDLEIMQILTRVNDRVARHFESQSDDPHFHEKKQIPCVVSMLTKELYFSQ
Procedure: as §1

[1] = biological target: T3, caspase-6 cleavage of lamin A/C in SKNAS cells (Homo sapiens, UniProt P55212); assay: Cell-based ELISA for cleaved lamin A/C (cellular lamin cleavage assay); conditions: for IC50: inhibitor 30 min before 3 µM staurosporine for 6 hours, small lamin A/C cleavage product; for activity in the cellular lamin degradation assay: inhibitor concentrations up to 100 µM, 3 µM staurosporine for 6 hours; for fold lower potency in cellular lamin assay than in enzymatic assay: cellular lamin cleavage IC50 versus enzymatic caspase-6 IC50
T3 construct: monitors cellular caspase-6 cleavage of endogenous lamin A/C under apoptotic conditions; endogenous in cells; host or cells: SKNAS (ATCC #CRL-2137)
T3 sequence (P55212 24-179 limits assumed): T1 sequence (P55212 24-179 limits assumed)
T3 sequence (P55212 194-293 limits assumed): T1 sequence (P55212 194-293 limits assumed)
Procedure: The following day, cell culture medium was aspirated and replaced with 20 µl/well basal medium (DMEM with no supplements added). […] 5 µl of diluted inhibitor was delivered to each well and incubated for 30 minutes in a cell culture incubator prior to addition of 5 µl/well staurosporine in basal medium. The final DMSO concentration in the assay was 0.1% and the final staurosporine concentration was 3 µM (or indicated concentration). […] Cells were permeabilized by the addition of 50 µl 0.2% Triton X-100 in PBS for 15 minutes at room temperature. […] The following day, primary antibody was aspirated and the wells washed 3 times with 100 µl TBST. Secondary antibody (donkey anti-rabbit IgG, HRP-conjugated (GE Healthcare #NA934V)) was delivered at 1∶2500 dilution in blocking agent (20 µl/well) and incubated 1 hour at room temperature.
In order to develop an assay more amenable to inhibitor screening, this antibody detection was adapted to a plate-based non-denaturing assay. SKNAS cells cultured in 384-well plates were treated with 3 µM staurosporine for six hours prior to fixation with 4% paraformaldehyde and permeabilization with 0.2% Triton X-100. Binding of the two antibodies that recognize neo-epitopes on the large or small lamin degradation products was detected by horseradish-peroxidase-labeled secondary antibody and subsequent chemiluminescent substrate addition (see methods for details).

[2] = tested on: VEIDase activity in SKNAS cells; assay: Caspase-Glo 6 assay (lysate based); format: cell-based, human; conditions: 3 µM staurosporine for 6 hours, lysate based readout, read-out: IC50 for inhibition of VEIDase activity, Caspase-Glo 6 assay
Procedure: SKNAS cells were plated at a density of 20,000 cells per well into 384-well black clear-bottom cell culture plates in 20 µl/well growth medium and allowed to adhere overnight. The following day, 5 µl of peptide inhibitor diluted in growth medium was delivered to each well 30 minutes prior to addition of 5 µl/well staurosporine in growth medium. The final DMSO concentration in the assay was 0.1% and the final staurosporine concentration was 3 µM. Following 6 hours incubation at 37°C, Caspase-Glo® 6 reagents (Promega; Madison, WI) were prepared according to manufacturer's recommendation, and 30 µl was added directly to each well, followed by 1 hour incubation at 37°C and luminescence recording using a Perkin Elmer Envision.

Caspase-3 = biological target: T4, Caspase-3 (Homo sapiens, UniProt P42574); assay: Enzymatic caspase activity assay, (Ac-DEVD)2-Rh110 substrate; format: biochemical; conditions: apparent IC50; 15 minute preincubation and 40 minute reaction; 300 pM caspase-3, 1 µM (Ac-DEVD)2-Rh110
T4 construct: made in house; host or cells: E. coli
T4 sequence (P42574 29-175 limits assumed): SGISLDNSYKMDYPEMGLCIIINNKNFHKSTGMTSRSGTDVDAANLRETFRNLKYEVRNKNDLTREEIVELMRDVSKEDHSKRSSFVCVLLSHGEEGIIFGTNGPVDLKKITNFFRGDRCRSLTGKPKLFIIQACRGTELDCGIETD
T4 sequence (P42574 176-277 limits assumed): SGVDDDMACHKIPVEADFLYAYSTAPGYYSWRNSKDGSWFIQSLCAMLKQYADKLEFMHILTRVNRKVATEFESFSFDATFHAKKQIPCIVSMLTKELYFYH
Procedure: as §1

SKNAS cells [3] = assay: Mass spectrometry analysis of intracellular inhibitor accumulation; conditions: 10 µM inhibitor, 1 hour at 37°C, LC/MS/MS
Procedure: SKNAS cells were seeded in 12-well plates at a concentration of 5×10^6 cells/mL and allowed to adhere overnight prior to the experiment. Caspase inhibitors (10 µM) in Hank's balance Salt Solution (HBSS; Invitrogen) buffer containing 10 mM HEPES (Invitrogen) and a final DMSO concentration of 0.1% were added in triplicate to the cells. Non specific binding (NSB) samples were prepared by immediately aspirating the dose solution and washing the cells with 1 mL of ice cold HBSS. Cells for the accumulation experiment were incubated for 1 hour at 37°C with inhibitors prior to washing with 1 mL ice cold HBSS. Analytical internal standard (200 nM propranolol (Sigma) in 100% acetonitrile (ACN) with 0.1% formic acid) and blank HBSS buffer were sequentially added to the 12-well plates containing the NSB and accumulation samples. Reference samples for each inhibitor were made by adding internal standard to dose solution and cells incubated for 1 hour at 37°C. The cells from all experiments were scraped from the bottom of the 12 well plates, sonicated for approximately 30 minutes, and centrifuged for 10 minutes at 3000 x g prior to LC/MS/MS analysis.
The LC/MS/MS system consisted of an AB Sciex API4000 mass spectrometer (AB Sciex, Foster City, CA), an Aria LX2 multiplexing LC system (Thermo Fisher Scientific, Waltham, MA) and a CTC Analytics autosampler (Leap Technologies, Carrboro, NC). An ESI Spray source in the positive ion mode and multiple reaction monitoring (MRM) were used to quantitate peak areas. The LC separations were performed on a 50×2.0 mm Gemini C18 analytical column (Phenomenex, Torrance, CA). The mobile phases consisted of water with 0.1% formic acid (mobile phase A) and ACN with 0.1% formic acid (mobile phase B). Mass spectrometer data were processed using Analyst software version 1.4.2.

SKNAS cells [4] = assay: LDH release assay; format: cell-based, human
Procedure: SKNAS cells were plated at a density of 20,000 cells per well into 384-well black clear-bottom cell culture plates in 20 µl/well growth medium and allowed to adhere overnight. The following day, 5 µl staurosporine diluted in growth medium was delivered to each well and incubated for the indicated time in a cell culture incubator. The final DMSO concentration in the assay was 0.1%. At each timepoint, lactate dehydrogenase (LDH) activity was measured in cell supernatants using a colorimetric LDH activity measurement kit (BioVision; Mountain View, CA) according to manufacturer's recommendation by measuring absorbance at 450 nm using a Spectramax platereader (Molecular Devices; Sunnyvale, CA).

[5] = read-out: Enzymatic Caspase-6 IC50
[6] = read-out: Mean IC50 Caspase-6, apparent IC50, 1 nM caspase-6, 5 µM (Ac-VEID)2-Rh110

IC50 (Caspase-6; [5]) [nM]	IC50 ([1]; SKNAS cells) [nM]	Compound	IC50 (Caspase-6; [6]) [nM]	IC50 (Caspase-7) [nM]	IC50 (Caspase-3) [nM]	also measured
–	–	CC[C@H](C)[C@H](NC(C)=O)C(=O)N[C@@H](CCC(=O)O)C(=O)N[C@H](C(=O)N[C@H](C=O)CC(=O)O)[C@@H](C)O [Ac-IETD-CHO] (Ac-IETD-aldehyde)	53.2	553	75.8	–
–	–	CC[C@H](C)[C@H](NC(=O)[C@H](CCC(=O)O)NC(=O)[C@@H](NC(C)=O)C(C)C)C(=O)N[C@H](C=O)CC(=O)O [Ac-VEID-CHO] (Ac-VEID-aldehyde)	–	162	13.6	activity in the cellular lamin degradation assay ([1]; SKNAS cells): lacks any activity in the cellular assay; IC50 [2]: 490 nM
156	940	CC(C)[C@H](NC(=O)c1ccc2ccccc2n1)C(=O)N[C@@H](CC(=O)O)C(=O)COc1c(F)cccc1F [Q-VD-OPh]	–	–	–	% cell accumulation (SKNAS cells [3]): 1.72%; fold lower potency in cellular lamin assay than in enzymatic assay [1]: 6 fold
–	–	CN[C@@H]1C[C@H]2O[C@@](C)([C@@H]1OC)n1c3ccccc3c3c4c(c5c6ccccc6n2c5c31)C(=O)NC4 [staurosporine]	–	–	–	signal:background ratio of lamin A/C degradation ([1]; SKNAS cells, 3 µM staurosporine, six-hour treatment, no inhibitor): 8.8 fold; treatment time required for the same degree of LDH release (SKNAS cells [4]; 30 µM staurosporine): 4 h; staurosporine concentration at which LDH release is detected above background levels (SKNAS cells [4]; after 6 hours of treatment): ~4 µM
2110	44000	COC(=O)C[C@H](NC(=O)[C@H](C)NC(=O)[C@@H](NC(=O)OCc1ccccc1)C(C)C)C(=O)CF [z-VAD-FMK] (Cbz-Val-Ala-Asp(OMe)-CH2F)	2110	74.7	168	–
129	–	CC[C@H](C)[C@H](NC(=O)[C@H](CCC(=O)OC)NC(=O)[C@@H](NC(=O)OCc1ccccc1)C(C)C)C(=O)N[C@@H](CC(=O)OC)C(=O)CF [z-VEID-FMK] (Cbz-VE(OMe)ID(OMe)-CH2F)	129	648	45.1	–
8.4	21000	z-EID-TFPM	–	–	–	–
19	180	z-ID-TFPM	–	–	–	% cell accumulation (SKNAS cells [3]): 1.97%; fold lower potency in cellular lamin assay than in enzymatic assay [1]: ~10 fold
< 1.7	12000	z-VEID-tetrafluorophenoxymethyl [z-VEID-TFPM]	–	–	–	% cell accumulation (SKNAS cells [3]): 0.17%

Compound	IC50 (Caspase-6; [5]) [nM]	IC50 ([1]; SKNAS cells) [nM]	IC50 (Caspase-6; [6]) [nM]	IC50 (Caspase-7) [nM]	IC50 (Caspase-3) [nM]	also measured
CC(=O)N[C@@H](CC(=O)O)C(=O)N[C@@H](CCC(=O)O)C(=O)N[C@H](C(=O)N[C@H](C=O)CC(=O)O)C(C)C [Ac-DEVD-CHO]	31	> 100000	30.5	3.7	–	activity in the cellular lamin degradation assay ([1]; SKNAS cells): inactive in lamin degradation assay; IC50 [2]: 1490 nM
COC(=O)CC[C@H](NC(=O)[C@H](CC(=O)OC)NC(=O)OCc1ccccc1)C(=O)N[C@H](C(=O)N[C@@H](CC(=O)OC)C(=O)CF)C(C)C [z-DEVD-FMK]	402	> 100000	402	98.5	–	–
